Assays:
[1] = system: B. subtilis 168; test: fitness (endpoint OD595 vs no drug) (fraction); higher = more growth
Summary of the method: (§1)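 Fitness was measured as bacterial growth in 384-well plates inoculated at OD595 0.01 (30 µl, or 55 µl for S. pneumoniae). Media were TSB, LB Lennox or CY, at 37 °C. OD595 was read every 30 min for 14 h and background-subtracted against the first reading. Fitness is OD595 at the transition into stationary phase divided by the robust mean of no-drug control wells, capped at 1.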

[2] = system: S. aureus DSM 20231; test: as above
Summary of the method: as §1

[3] = system: S. aureus Newman; test: as above
Summary of the method: as §1

[4] = system: B. subtilis 168; test: Bliss interaction score (quartile over a dose matrix) (fitness difference); higher = more antagonism (negative = synergy)
Summary of the method: (§2)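 The Bliss score is observed minus expected fitness under the product model, reported as quartiles over technical, biological and donor/recipient replicates. Fitness is the OD595 at entry into stationary phase divided by the plate's robust no-drug mean and capped at 1. Single-drug fitness was inferred from combination data.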

[5] = system: S. aureus DSM 20231; test: as above
Summary of the method: as §2

[6] = system: S. aureus Newman; test: as above
Summary of the method: as §2

[7] = system: S. pneumoniae D39V; test: as above
Summary of the method: as §2
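Wherever Bliss interaction score (quartile over a dose matrix) is given: first quartile when negative (synergy) and third quartile when positive (antagonism).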

CC[C@H]1OC(=O)[C@H](C)[C@@H](O[C@H]2C[C@@](C)(OC)[C@@H](O)[C@H](C)O2)[C@H](C)[C@@H](O[C@@H]2O[C@H](C)C[C@H](N(C)C)[C@H]2O)[C@](C)(O)C[C@@H](C)CN(C)[C@H](C)[C@@H](O)[C@]1(C)O [Azithromycin] + COc1ccc(C[C@H](N)C(=O)N[C@H]2[C@@H](O)[C@H](n3cnc4c(N(C)C)ncnc43)O[C@@H]2CO)cc1 [Puromycin]
fitness
Settings | partner 0.39 µg/mL | partner 0.78 µg/mL | partner 1.56 µg/mL
[1], first compound 0.25 µg/mL | 0.888 | 0.913 | 0.95
[1], first compound 0.5 µg/mL | 0.828 | 0.815 | 0.82
[2], first compound 0.125 µg/mL | 0.849 | 0.863 | 0.923
[2], first compound 0.25 µg/mL | 0.881 | 0.936 | 0.891
[3], first compound 0.125 µg/mL | 0.915 | 0.905 | 0.945
[3], first compound 0.25 µg/mL | 0.884 | 0.836 | 0.889
[3], first compound 0.5 µg/mL | 0.559 | – | 0.524

fitness, [2], one replicate
Settings | first compound 0.125 µg/mL | first compound 0.25 µg/mL | first compound 0.5 µg/mL
partner 3.12 µg/mL | ≥ 1 | 0.915 | 0.293
partner 6.24 µg/mL | 0.615 | 0.237 | 0.0525

Settings | Bliss interaction score
[4] | -0.0345
[5] | -0.0839
[6] | -0.0828
[7] | -0.0719

CC[C@H]1OC(=O)[C@H](C)[C@@H](O[C@H]2C[C@@](C)(OC)[C@@H](O)[C@H](C)O2)[C@H](C)[C@@H](O[C@@H]2O[C@H](C)C[C@H](N(C)C)[C@H]2O)[C@](C)(O)C[C@@H](C)CN(C)[C@H](C)[C@@H](O)[C@]1(C)O [Azithromycin] + COc1cccc2c1C(=O)c1c(O)c3c(c(O)c1C2=O)C[C@@](O)(C(=O)CO)C[C@@H]3O[C@H]1C[C@H](N)[C@H](O)[C@H](C)O1 [Doxorubicin]
fitness
Settings | partner 0.625 µg/mL | partner 1.25 µg/mL | partner 2.5 µg/mL
[1], first compound 0.25 µg/mL | 0.964 | 0.92 | 0.791
[1], first compound 0.5 µg/mL | 0.879 | 0.847 | 0.767
[2], first compound 0.125 µg/mL | 0.811 | 0.794 | 0.781
[2], first compound 0.25 µg/mL | 0.811 | 0.824 | 0.778
[2], first compound 0.5 µg/mL | 0.62 | 0.672 | 0.569
[3], first compound 0.125 µg/mL | 0.777 | 0.775 | 0.735
[3], first compound 0.25 µg/mL | 0.827 | 0.779 | 0.77
[3], first compound 0.5 µg/mL | 0.659 | 0.665 | 0.561

[1], first compound 2 µg/mL, one replicate
Settings | fitness
partner 0.625 µg/mL | 0.358
partner 1.25 µg/mL | 0.176
partner 2.5 µg/mL | 0.0297

Settings | Bliss interaction score
[4] | 0.164
[5] | 0.115
[6] | 0.0458
[7] | -0.0571

CC[C@H]1OC(=O)[C@H](C)[C@@H](O[C@H]2C[C@@](C)(OC)[C@@H](O)[C@H](C)O2)[C@H](C)[C@@H](O[C@@H]2O[C@H](C)C[C@H](N(C)C)[C@H]2O)[C@](C)(O)C[C@@H](C)CN(C)[C@H](C)[C@@H](O)[C@]1(C)O [Azithromycin] + C[C@@H]1O[C@@H]1P(=O)(O)O [Fosfomycin]
fitness
Settings | partner 0.781 µg/mL | partner 1.562 µg/mL | partner 3.124 µg/mL | partner 6.248 µg/mL
[1], first compound 0.25 µg/mL | – | 0.713 | 0.61 | 0.445
[1], first compound 0.5 µg/mL | – | 0.622 | 0.582 | 0.442
[2], first compound 0.125 µg/mL | 0.728 | 0.615 | 0.509 | –
[2], first compound 0.25 µg/mL | 0.68 | 0.625 | 0.554 | –
[2], first compound 0.5 µg/mL | 0.526 | 0.306 | 0.124 | –
[3], first compound 0.125 µg/mL | 0.622 | 0.525 | 0.18 | –
[3], first compound 0.25 µg/mL | 0.597 | 0.429 | 0.0915 | –
[3], first compound 0.5 µg/mL | 0.312 | 0.128 | 0.0235 | –

[1], first compound 2 µg/mL, one replicate
Settings | fitness
partner 1.562 µg/mL | 0.367
partner 3.124 µg/mL | 0.176
partner 6.248 µg/mL | 0.0795

Settings | Bliss interaction score
[4] | 0.0745
[5] | -0.0651
[6] | -0.12
[7] | 0.0708

CC[C@H]1OC(=O)[C@H](C)[C@@H](O[C@H]2C[C@@](C)(OC)[C@@H](O)[C@H](C)O2)[C@H](C)[C@@H](O[C@@H]2O[C@H](C)C[C@H](N(C)C)[C@H]2O)[C@](C)(O)C[C@@H](C)CN(C)[C@H](C)[C@@H](O)[C@]1(C)O [Azithromycin] + C[n+]1ccc(-c2cc[n+](C)cc2)cc1 [Paraquat]
fitness
Settings | partner 1.25 µg/mL | partner 2.5 µg/mL | partner 5 µg/mL
[1], first compound 0.25 µg/mL | 0.947 | 0.919 | 0.884
[1], first compound 0.5 µg/mL | 0.906 | 0.866 | 0.759
[2], first compound 0.125 µg/mL | 0.827 | 0.846 | 0.794
[2], first compound 0.25 µg/mL | 0.814 | 0.75 | 0.823
[2], first compound 0.5 µg/mL | 0.473 | 0.51 | 0.514
[3], first compound 0.125 µg/mL | 0.924 | 0.904 | 0.853
[3], first compound 0.25 µg/mL | 0.882 | 0.845 | 0.789
[3], first compound 0.5 µg/mL | 0.55 | 0.575 | 0.496

Settings | Bliss interaction score
[4] | 0.0865
[5] | -0.095
[6] | -0.0372
[7] | 0.0486

Source: the supplement of paper PMC10627819
